Tested on: C. albicans
Experiment: Heparin-binding ELISA assay: C. albicans binding to solid-phase heparin, desulfated heparin analogs, chondroitin sulfate or dermatan sulfate
Format: cell-based, Candida albicans
Details: equimolar amounts with respect to heparin
Procedure: To measure the binding of C. albicans to solid-phase heparin, a heparin-binding ELISA assay was developed, as follows. A single colony of each C. albicans wild type or mutant strain from a YPD plate was inoculated into 3 ml YPD medium and incubated overnight at 30° C. with shaking at 225 rpm. Sigma heparin (fresh solution made daily), diluted to 25 units/ml in autoclaved, sterile-filtered PBS was added as 0.1 ml aliquots to each well of an allyl amine-coated 96-well heparin binding microtiter plate (BD Biosciences). The plate was incubated at room temperature overnight in the dark (50). In the morning, the plate was washed with acetate buffer (100 mM NaCl, […], 0.2% Tween 20, pH 7.2), incubated with 3% bovine serum albumin (BSA) in PBS at 30° C. for 1 hour, then washed with PBS. In the meantime, overnight cultures of C. albicans were subcultured by dilution to OD600 of 0.2 in 25 ml of YPD, and grown at 30° C. to mid-log phase (OD600 0.6-0.7). […] After 45 minutes, absorbance at 595 nm was read on a Beckman Coulter DTX 880. […]
The ELISA assay used a commercially available 96-well microtiter plate coated with polymerized allylamine (BD Biosciences) (27), in which wells were inoculated with 2.5 units (12.5 μg) heparin in 100 μl phosphate buffered saline (PBS) per well. […] The color change was read spectrophotometrically at absorbance of 595 nm.

chondroitin sulfate
binding of C. albicans versus binding to heparin, in words: equivalent

dermatan sulfate
binding of C. albicans versus binding to heparin, in words: reduced

From US9409975B2, “Antibody binding microbial heparin binding motif to retard or prevent microbial biofilm formation on implanted medical devices” (priority 2012, dated 2016)
